For test [1], the target named is T1, Androgen receptor (Homo sapiens, UniProt P10275).
T1 sequence (P10275 whole entry): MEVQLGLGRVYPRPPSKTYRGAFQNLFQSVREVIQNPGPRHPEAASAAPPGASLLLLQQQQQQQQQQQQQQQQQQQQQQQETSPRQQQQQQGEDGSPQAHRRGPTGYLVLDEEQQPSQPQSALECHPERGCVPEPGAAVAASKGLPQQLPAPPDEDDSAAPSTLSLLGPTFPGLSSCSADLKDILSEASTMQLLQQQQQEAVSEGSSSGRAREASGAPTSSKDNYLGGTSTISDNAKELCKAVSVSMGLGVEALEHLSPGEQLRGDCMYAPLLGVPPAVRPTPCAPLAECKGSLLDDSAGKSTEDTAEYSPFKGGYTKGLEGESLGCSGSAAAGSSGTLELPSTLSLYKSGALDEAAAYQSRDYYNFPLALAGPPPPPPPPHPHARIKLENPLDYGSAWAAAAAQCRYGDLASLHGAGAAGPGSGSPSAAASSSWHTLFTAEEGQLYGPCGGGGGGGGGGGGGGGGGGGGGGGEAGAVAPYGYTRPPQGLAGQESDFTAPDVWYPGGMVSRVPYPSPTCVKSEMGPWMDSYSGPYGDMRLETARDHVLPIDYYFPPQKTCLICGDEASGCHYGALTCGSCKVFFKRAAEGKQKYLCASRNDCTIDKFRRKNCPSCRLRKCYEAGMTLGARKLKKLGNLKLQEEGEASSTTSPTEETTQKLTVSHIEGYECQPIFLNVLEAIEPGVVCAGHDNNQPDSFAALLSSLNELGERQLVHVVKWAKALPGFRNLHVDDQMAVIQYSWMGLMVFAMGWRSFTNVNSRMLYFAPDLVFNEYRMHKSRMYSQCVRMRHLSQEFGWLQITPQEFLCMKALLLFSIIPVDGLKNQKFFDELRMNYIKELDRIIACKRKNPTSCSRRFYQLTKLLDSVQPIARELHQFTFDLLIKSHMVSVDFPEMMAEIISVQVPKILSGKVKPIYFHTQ
Description: Antagonist activity at human androgen receptor expressed in CV1 cells

In test [2] the target is T1, Androgen receptor. This is another data set of the same source.
Description: Agonist activity at human androgen receptor expressed in CV1 cells
In test [3] the target is T1, Androgen receptor. Description: biochemical.
Description: Binding affinity to human androgen receptor expressed in CV1 cells

With `O=c1cc(C(F)(F)F)c2ccc(N(CC(F)(F)F)CC(F)(F)F)cc2o1`, the IC50 (usually the concentration at which inhibition is half-maximal) against Androgen receptor [1] was found to be 63 nM. Also, at Androgen receptor [2], the concentration for a half-maximal effect (EC50) (in general, the concentration that produces a half-maximal response) turned out to be 73 nM.
On to `O=c1cc(C(F)(F)F)c2ccc(NC3CCCC3)cc2[nH]1`, for which the IC50 against Androgen receptor [1] came to 149 nM. The Ki (usually the equilibrium dissociation constant of an inhibitor or competing ligand from its target) at Androgen receptor [3] was found to be 1000 nM.
Turning to `O=c1cc(C(F)(F)F)c2ccc(NCC(F)(F)F)cc2o1`, the IC50 on Androgen receptor [1] came out at 50 nM.
At Androgen receptor [1], `CC1(C)C=Cc2cc3c(C(F)(F)F)cc(O)nc3cc2N1` registered an IC50 of 27 nM. Moreover, at Androgen receptor [3], the Ki worked out at 73 nM.
Taken in the same sequence, the figures for `O=c1cc(C(F)(F)F)c2ccc(NCc3ccccc3)cc2[nH]1` were 294 nM and 163 nM.
Regarding `O=c1cc(C(F)(F)F)c2cc(NC3CCCC3)ccc2[nH]1`, on Androgen receptor [1], the IC50 came to 42 nM. Also, on Androgen receptor [3], the Ki is 74 nM.
With `CCNc1ccc2[nH]c(=O)cc(C(F)(F)F)c2c1`, on Androgen receptor [1], the IC50 amounted to 111 nM.
Compound `O=c1cc(C(F)(F)F)c2ccc(NC3CCCCC3)cc2[nH]1` yielded an IC50 on Androgen receptor [1] of 507 nM. The compound also registered a Ki on Androgen receptor [3] of 1000 nM.
In the case of `CCC1CCc2cc3c(C(F)(F)F)cc(=O)[nH]c3cc2N1` (stereo unspecified), on Androgen receptor [1], it took 14 nM to reach half-maximal inhibition (IC50). This compound also registered a Ki at Androgen receptor [3] of 11 nM.

These data come from ChEMBL document CHEMBL1144605, “Discovery of an androgen receptor modulator pharmacophore based on 2-quinolinones” (Bioorg Med Chem Lett, 2007).
